Data: patent US20050026785A1, “Novel phenyl-propargylether derivatives” (priority 2001, published 2005)

Tests used:
Type in all cases: in vivo
Phytophthora [1] = experiment: D-2a Residual-protective action against Phytophthora on tomato plants; conditions: test D-2a residual-protective, untreated plants showed pathogen attack of 80-100%, read-out: inhibition of fungal infestation
Method: (§1) D-2: Action against Phytophthora on tomato plants
(§2) a) Residual-protective action
(§3) After a cultivation period of 3 weeks, tomato plants are sprayed with a spray mixture (0.02% active ingredient) prepared from a wettable powder formulation of the test compound. After 48 hours, the treated plants are infected with a sporangia suspension of the fungus. Fungus infestation is evaluated after incubation of the infected plants for 5 days at 90-100% relative humidity and +20° C.

Phytophthora [2] = experiment: D-2b Systemic action against Phytophthora on tomato plants; conditions: test D-2b systemic (soil watering), untreated plants showed pathogen attack of 80-100%, read-out: inhibition of fungal infestation
Method: as §1
as §3, with “watered” for “sprayed”, “ingredient based on the volume of the soil)” for “ingredient)”, “compound. […]” for “compound.”, “96” for “48”, “4” for “5”

Plasmopara viticola [3] = experiment: D-1a Residual-protective action against Plasmopara viticola on vines; conditions: test D-1a residual-protective, vine seedlings, untreated plants showed pathogen attack of 80-100%, read-out: inhibition of fungal infestation
Method: (§4) D-1: Action against Plasmopara viticola on vines
as §2
Vine seedlings are sprayed at the 4- to 5-leaf stage with a spray mixture (0.02% active ingredient) prepared from a wettable powder formulation of the test compound. After 24 hours, the treated plants are infected with a sporangia suspension of the fungus. Fungus infestation is evaluated after incubation for 6 days at 95-100% relative humidity and +20° C.

Plasmopara viticola [4] = experiment: D-1b Residual-curative action against Plasmopara viticola on vines; conditions: test D-1b residual-curative, vine seedlings, untreated plants showed pathogen attack of 80-100%, read-out: inhibition of fungal infestation
Method: as §4
b) Residual-Curative Action
Vine seedlings are infected at the 4- to 5-leaf stage with a sporangia suspension of the fungus. After incubation for 24 hours in a humidity chamber at 95-100% relative humidity and +20° C., the infected plants are dried and sprayed with a spray mixture (0.02% active ingredient) prepared from a wettable powder formulation of the test compound. After the spray coating has dried, the treated plants are placed in the humidity chamber again. Fungus infestation is evaluated 6 days after infection.

Phytophthora [5] = experiment: D-3a Residual-protective action against Phytophthora on potato plants; conditions: test D-3a residual-protective, potato plants (Bintje), untreated plants showed pathogen attack of 80-100%, read-out: inhibition of fungal infestation
Method: (§5) D-3: Action against Phytophthora on potato plants
as §2
(§6) 2-3 week old potato plants (Bintje variety) are sprayed with a spray mixture (0.02% active ingredient) prepared from a wettable powder formulation of the test compound. After 48 hours, the treated plants are infected with a sporangia suspension of the fungus. Fungus infestation is evaluated after incubation of the infected plants for 4 days at 90-100% relative humidity and +20° C.

Phytophthora [6] = experiment: D-3b Systemic action against Phytophthora on potato plants; conditions: test D-3b systemic (soil watering), potato plants (Bintje), untreated plants showed pathogen attack of 80-100%, read-out: inhibition of fungal infestation
Method: as §5
as §6, with “watered” for “sprayed”, “ingredient based on the volume of the soil)” for “ingredient)”, “compound. […]” for “compound.”, “C. Fungal infestation is effectively controlled with compounds of Tables 1 to 31.” for “C.”

Measured: inhibition at 200 ppm

CCC#CCOc1ccc(CCNC(=O)[C@@H](OCC)c2ccccc2)cc1OC [Compound E1.151]
80 to 100%: Phytophthora [1] | Phytophthora [2]

C#CCOc1ccc(CCNC(=O)[C@@H](OCC#C)c2ccc(Cl)cc2)cc1OC [Compound E1.011, (S)-2-(4-chloro-phenyl)-N-[2-(3-methoxy-4-prop-2-ynyloxy-phenyl)-ethyl]-2-prop-2-ynyloxy-acetamide]
80 to 100%: all assays above

C#CCOc1ccc(CCNC(=O)[C@@H](OCC#C)c2ccccc2)cc1OC [Compound E1.002, (S)-2-phenyl-N-[2-(3-methoxy-4-prop-2-ynyloxy-phenyl)-ethyl]-2-prop-2-ynyloxy-acetamide]
80 to 100%: all assays above
